According to patent US20150050388A1, “SYNBIOTIC FOOD COMPOSITION CONTAINING TAGATOSE AND PROBIOTIC LACTIC ACID BACTERIA” (CJ CHEILJEDANG CORPORATION, priority 2012, published 2015):

Experiments:
L. casei DN114001 = assay: Capacity of using tagatose: live cell count after culture in minimal medium with added sugar; format: cell-based, Lactobacillus casei
Description: (§1) Pure culture solutions (1% culture solution in a stationary-phase in which a cell count of each of the strains is about 10^8 to 10^9 cfu/ml) of a total of 385 lactic acid bacteria strains were inoculated in selective media, respectively, and cultured in an incubator at 37° C. for 18 hours, followed by sub-culturing three times. Then, experiments proceeded at a state in which viability of the strain was optimal.
(§2) In order to evaluate the capacity of using tagatose of each of the lactic acid bacteria, a minimal medium composed of 5 g of peptone, 2.5 g of sodium acetate trihydrate, 0.5 ml of magnesium sulfate heptahydrate, 0.5 ml of manganese sulfate tetrahydrate, 5 ml of Tween 80, 1 g of diammonium citrate, 1 g of dipotassium phosphate, and 480 ml of distilled water was used.
(§3) After the medium was sterilized at 121° C. for 15 minutes and divided into three samples, 20 ml of 50% tagatose solution, 20 ml of 50% glucose solution, and 20 ml of 50% fructooligosaccharide solution (FOS) were added to each of the three samples, thereby preparing liquid media.
(§4) 1% of each of the lactic acid bacteria strains cultured as described above was inoculated in the prepared medium and cultured in an incubator at 37° C. for 24 hours. Thereafter, absorbance of each of the cultured strains was measured using an ELISA reader, and a cell count was measured through plate culture using a dilution solution, thereby evaluating the capacity of using tagatose.

L. casei Shirota = assay: as above; format: cell-based, Lactobacillus casei
Description: as §1, §2, §3, §4

L. casei-01® = assay: as above; format: cell-based, Lactobacillus casei
Description: as §1, §2, §3, §4

L. casei = assay: as above; format: cell-based, Lactobacillus casei; details: for Log10 Value of Live Cell Count: 24h, 37° C., minimal medium with the named sugar; for Tagatose/Glucose: ratio of 24h log10 live cell counts
Description: as §1, §2, §3, §4

P. pentosaceus = assay: as above; format: cell-based, Pediococcus pentosaceus; details: for Log10 Value of Live Cell Count: 24h, 37° C., minimal medium with the named sugar; for Tagatose/Glucose: ratio of 24h log10 live cell counts
Description: as §1, §2, §3, §4

L. acidophilus = assay: as above; format: cell-based, Lactobacillus acidophilus; details: strain 19 (L. acidophilus)
Description: as §1
as §2, with “used. […]” for “used.”
as §4

L. farciminis = assay: as above; format: cell-based, Lactobacillus farciminis; details: strain 18 (L. farciminis)
Description: as §1
as §2, with “used. […]” for “used.”
as §4

L. rhamnosus = assay: as above; format: cell-based, Lactobacillus rhamnosus; details: for Log10 Value of Live Cell Count: 24h, 37° C., minimal medium with the named sugar; for Tagatose/Glucose: ratio of 24h log10 live cell counts
Description: as §1, §2, §3, §4

L. rhamnosus GG = assay: as above; format: cell-based, Lactobacillus rhamnosus; details: for Log10 Value of Live Cell Count: 24h, 37° C., minimal medium with the named sugar; for Tagatose/Glucose: ratio of 24h log10 live cell counts
Description: as §1, §2, §3, §4

[1] = system: lactic acid bacteria strains efficiently using tagatose; assay: Growth curves of lactic acid bacteria on other prebiotics (Example 3); format: cell-based; details: 9 strains, 37° C., live cell count at 0, 5, 10, 24 and 48 hours
Description: Capacity of using other prebiotics except for tagatose was evaluated, compared and analyzed using 9 strains having excellent capacity of using tagatose among the 19 strains identified in Example 2.
For the present evaluation, at the time of preparing the medium used in Example 1, as a positive control group, glucose was used except for tagatose, and as negative control groups, fructooligosaccharide, lactitol, lactulose, and xylitol were used.
Each of the Lactobacillus casei (FIG. 1), Lactobacillus casei Shirota (FIG. 2), Lactobacillus casei DN114001 (FIG. 3), Lactobacillus casei-01® (FIG. 4), Lactobacillus rhamnosus (FIG. 5), Lactobacillus rhamnosus GG (FIG. 6), Pediococcus pentosaceus (FIG. 7), Lactobacillus farciminis (FIG. 8), and Lactobacillus acidophilus (FIG. 9) that were identified in Example 2 was inoculated in each of the media and cultured at 37° C. for 0, 5, 10, 24, and 48 hours. Then, a live cell count thereof was measured, such that a growth curve of each of the strains was obtained.

[2] = 24h, 37° C., minimal medium with the named sugar
[3] = ratio of 24h log10 live cell counts

O=C(CO)[C@@H](O)[C@@H](O)[C@H](O)CO [Tagatose, tagatose]
capacity of using tagatose (L. casei DN114001; L. casei DN114001, as compared to the other strains of Table 1): significantly excellent capacity of using tagatose
Log10 Value of Live Cell Count (L. casei DN114001; strain 8 (L. casei DN114001), 24h, 37° C., minimal medium with the named sugar): 8.953
Tagatose/Glucose (L. casei DN114001; strain 8 (L. casei DN114001), ratio of 24h log10 live cell counts): 101.7%
capacity of using tagatose (L. casei Shirota; L. casei Shirota, as compared to the other strains of Table 1): significantly excellent capacity of using tagatose
Log10 Value of Live Cell Count (L. casei Shirota; strain 7 (L. casei Shirota), 24h, 37° C., minimal medium with the named sugar): 9.054
Tagatose/Glucose (L. casei Shirota; strain 7 (L. casei Shirota), ratio of 24h log10 live cell counts): 101.4%
capacity of using tagatose (L. casei-01®; L. casei-01, as compared to the other strains of Table 1): significantly excellent capacity of using tagatose
Log10 Value of Live Cell Count (L. casei-01®; strain 9 (L. casei-01®), 24h, 37° C., minimal medium with the named sugar): 9.068
Tagatose/Glucose (L. casei-01®; strain 9 (L. casei-01®), ratio of 24h log10 live cell counts): 101.4%
Log10 Value of Live Cell Count (L. casei; strain 1 (L. casei)): 7.882
Tagatose/Glucose (L. casei; strain 1 (L. casei)): 100.3%
Log10 Value of Live Cell Count (L. casei; strain 2 (L. casei)): 8.137
Tagatose/Glucose (L. casei; strain 2 (L. casei)): 100.1%
Log10 Value of Live Cell Count (L. casei; strain 3 (L. casei)): 8.240
Tagatose/Glucose (L. casei; strain 3 (L. casei)): 99.6%
Log10 Value of Live Cell Count (L. casei; strain 4 (L. casei)): 8.424
Tagatose/Glucose (L. casei; strain 4 (L. casei)): 99.0%
Log10 Value of Live Cell Count (L. casei; strain 5 (L. casei)): 8.449
Tagatose/Glucose (L. casei; strain 5 (L. casei)): 93.1%
Log10 Value of Live Cell Count (L. casei; strain 6 (L. casei)): 8.767
Tagatose/Glucose (L. casei; strain 6 (L. casei)): 98.8%
Log10 Value of Live Cell Count (P. pentosaceus; strain 16 (P. pentosaceus)): 8.798
Tagatose/Glucose (P. pentosaceus; strain 16 (P. pentosaceus)): 99.1%
Log10 Value of Live Cell Count (P. pentosaceus; strain 17 (P. pentosaceus)): 8.953
Tagatose/Glucose (P. pentosaceus; strain 17 (P. pentosaceus)): 98.8%
Log10 Value of Live Cell Count (L. acidophilus; [2]): 7.913
Tagatose/Glucose (L. acidophilus; [3]): 98.4%
Log10 Value of Live Cell Count (L. farciminis; [2]): 8.601
Tagatose/Glucose (L. farciminis; [3]): 99.2%
Log10 Value of Live Cell Count (L. rhamnosus; strain 10 (L. rhamnosus)): 7.939
Tagatose/Glucose (L. rhamnosus; strain 10 (L. rhamnosus)): 98.5%
Log10 Value of Live Cell Count (L. rhamnosus; strain 11 (L. rhamnosus)): 8.031
Tagatose/Glucose (L. rhamnosus; strain 11 (L. rhamnosus)): 99.2%
Log10 Value of Live Cell Count (L. rhamnosus; strain 12 (L. rhamnosus)): 8.059
Tagatose/Glucose (L. rhamnosus; strain 12 (L. rhamnosus)): 98.5%
Log10 Value of Live Cell Count (L. rhamnosus; strain 13 (L. rhamnosus)): 8.169
Tagatose/Glucose (L. rhamnosus; strain 13 (L. rhamnosus)): 99.5%
capacity of using tagatose (L. rhamnosus GG; L. rhamnosus GG, as compared to the other strains of Table 1): significantly excellent capacity of using tagatose
Log10 Value of Live Cell Count (L. rhamnosus GG; strain 14 (L. rhamnosus GG)): 8.548
Tagatose/Glucose (L. rhamnosus GG; strain 14 (L. rhamnosus GG)): 105.0%
Log10 Value of Live Cell Count (L. rhamnosus GG; strain 15 (L. rhamnosus GG)): 8.822
Tagatose/Glucose (L. rhamnosus GG; strain 15 (L. rhamnosus GG)): 103.5%

OC[C@@H](O)[C@@H](O[C@@H]1O[C@H](CO)[C@H](O)[C@H](O)[C@H]1O)[C@H](O)[C@@H](O)CO [lactitol]
capacity of using the sugar (comparison of growth curves) [1]: low
